Patent publication US20090203658A1, “NEUROACTIVE STEROID COMPOSITIONS AND METHODS OF USE THEREFOR” (Duke University, priority 2007, published 2009)
Marks after values point to notes of the source that are not given here.

Key:
[1] = system: healthy male smokers; assay: Pilot study of one-time DHEA or PG after overnight abstinence from cigarettes: craving measures; format: in vivo, human; details: one-time 400 mg; vs. placebo
Experimental: Elaborating, a pilot study is provided herein, which involves administering one-time DHEA (400 mg), PG (400 mg) or placebo to healthy male smokers following overnight abstinence from cigarettes. […] Thus, neuroactive steroids can be candidate therapeutic molecules for smoking cessation.

[2] = DHEA administration in humans (50 mg); cited from earlier work
[3] = system: brain; details: in vivo; cited from earlier work
[4] = system: subjects with schizophrenia or schizoaffective disorder
[5] = single dose of PG 175 mg; over the course of 5-8 hours; cited from earlier work
[6] = system: subjects with schizophrenia or schizoaffective disorder; assay: Randomized placebo-controlled double-blind trial of adjunctive PG: negative and cognitive symptoms (SANS, BACS, MATRICS); format: in vivo, human
Source text: Of 21 subjects randomized, 18 completed at least four weeks of treatment (n=9 per group). […] Increases in serum PG levels were positively correlated with cognitive improvement in the PG group, predicting both BACS (r=0.79, n=9, p=0.02; see FIG. 3A) and MATRICS (r=0.70, n=9, p=0.05; see FIG. 3B) composite scores at eight weeks. The mean BACS z-score increase for the PG group was 0.60 (vs. 0.22 for the placebo group). BACS and MATRICS assessments were correlated (r=0.74, p<0.0001).

[7] = system: rat frontal cortex; assay: Neuroactive steroid levels in frontal cortex after chronic lithium or valproate (GC/MS preceded by HPLC); format: in vivo, Male Wistar Kyoto rats; details: chronic administration four weeks, n=9
Experimental: Lithium and Valproate Administration.
NS analyses in rat and mouse frontal cortex were performed as described in Marx et al., 2006a; Marx et al., 2006b; and Marx et al., 2006c. Rodent brain tissue was homogenized in 5 volumes of distilled water containing about 2200 cpm (4400 dpm/injection) of tritiated NS (Perkin Elmer, Waltham, Mass.) to detect the HPLC fraction containing the NS of interest. Deuterated ALLO (D4-ALLO, 400 pg) and deuterated PG (D4-PG, 400 pg) were used as internal standards. Supernatants were extracted three times with three volumes of ethyl acetate and dried under nitrogen prior to HPLC purification. […] The limit of NS detection with this method was 2 pg for ALLO and 10 pg for PG. Mean intra-assay coefficients of variation were 3.9% for ALLO and 3.0% for PG.
Statistical Analysis. For rat experiments utilizing chronic lithium and valproate administration, data were analyzed by ANOVA with post-hoc Dunnett tests. Data from Bcl-2 knockout mouse experiments were analyzed by unpaired t-tests.
To that end, NS levels (ALLO and PG) were determined in frontal cortex by negative ion chemical ionization gas chromatography/mass spectrometry in male Wistar Kyoto rats treated chronically with lithium, valproate, or vehicle. NS were also investigated in heterozygous Bcl-2 knockout mice.

[8] = Serum drug levels after chronic lithium or valproate in chow; details: chow 1.2 then 2.4 g Li2CO3/kg, four weeks; measured by atomic absorption
Source text: Lithium and Valproate Administration. […] Animals were fed with control rodent chow or chow containing a low dose of lithium (1.2 g Li2CO3/kg) or valproate (10 g/kg) for one week to allow the animals to slowly acclimate to the drug, and were then fed with chow containing a full dose of lithium (2.4 g Li2CO3/kg) or valproate (20 g/kg) for three weeks. On the last day of the treatment, animals were sacrificed, and trunk blood was collected to measure lithium and valproate levels in the serum.

[9] = change from baseline (Hillside AE Form), n = 9
[10] = change from baseline (Hillside AE Form), n = 9, mild in all subjects

## C[C@]12CC[C@H](O)CC1=CC[C@@H]1[C@@H]2CC[C@]2(C)C(=O)CC[C@@H]12 [DHEA, dehydroepiandrosterone]
[1]
  craving measures following overnight smoking cessation: attenuates craving measures
[2]
  increase of ALLO: three-fold

## CNCCC(Oc1ccc(C(F)(F)F)cc1)c1ccccc1 (stereo not shown) [Fluoxetine]
[3]
  effect on brain ALLO levels and PG levels: elevates

## CC(=O)[C@H]1CC[C@H]2[C@@H]3CC=C4C[C@@H](O)CC[C@]4(C)[C@H]3CC[C@]12C [PG, pregnenolone]
[4]; PG administration
  AIMS, Barnes Akathisia Scale, Simpson-Angus Scale, blood pressure, pulse, or weight: did not result in a significant change
[4]; PG group, n=9
  tolerability: well-tolerated
[4]; average baseline 117.9 mg/dl
  glucose level, average post-treatment: 119.0 mg/dL
[4]; average baseline 185.8 mg/dl
  cholesterol, average post-treatment: 164.6 mg/dL
[4]; baseline (visit 1) vs. week 10 (visit 6)
  QTc intervals on EKG: did not negatively impact
[4]; [9]
  Akathisia: 0 N (%)
  All Other Side Effects: 0 N (%)
  Blurred Vision: 0 N (%)
  Diarrhea: 0 N (%)
  Drowsiness: 0 N (%)
  Excitation/Agitation: 0 N (%)
  Headache: 0 N (%)
  Impaired Sexual Performance: 0 N (%)
  Insomnia: 0 N (%)
  Joint Pain/Stiffness: 0 N (%)
  Malaise: 0 N (%)
  Nasal Congestion: 0 N (%)
  Peripheral Edema: 0 N (%)
  Rigidity: 0 N (%)
  Sweating: 0 N (%)
  Tremor: 0 N (%)
[4]; change from baseline (Hillside AE Form), n = 9, mild (<145/90)
  Hypertension: 1 (11%)^b N (%)
[4]; [10]
  Cold Extremities: 1 (11%)^a N (%)
  Decreased Interest in Sex: 1 (11%)^a N (%)
  Dry mouth: 1 (11%)^a N (%)
  Muscle Pain/Stiffness: 1 (11%)^a N (%)
  Restlessness: 2 (22%)^a N (%)
[4]; change from baseline pre-randomization (Hillside AE Form), n = 9, mild in all subjects
  Disorientation (to date, address, mayor, or MD name): 2 (22%)^a N (%)
[5]
  change of serum PG levels: approximately doubled
[6]; PG 50 to 250 mg BID for 8 weeks added to second generation antipsychotics, n=9, placebo 2.33, p=0.05
  mean change in SANS scores (improvement): 10.38
[6]; PG group, placebo group 0.22
  mean BACS z-score increase: 0.60
Eight weeks of PG vs. baseline, schizophrenia subjects
  increase in serum ALLO levels after PG administration: over 5 fold
Subjects with schizophrenia, baseline vs. 10 weeks
  PGS levels after PG administration: significantly increased
[1]
  craving measures following overnight smoking cessation: attenuates craving measures

## [Li] [lithium]
[7]; 0.75 SEM, vehicle 0.71 ng/g, post-hoc Dunnett p<0.05
  mean ALLO levels in rat frontal cortex: 2.42 ng/g
[7]; ±2.95 SEM, vehicle 3.37 ng/g, post-hoc Dunnett p=0.09
  mean PG levels in rat frontal cortex: 8.19 ng/g
[8]
  serum lithium level: 0.74 ±0.31 mEq/l
